Results as given in the NIST ThermoML archive (doi:10.1021/acs.jced.6b00350).
“And” between values parts separate entries of the source, which are not always exact repeats. Equal entries are not always repeated. Numbers after ± are expanded uncertainties.

Details: Liquid, Hot wire method

FC(F)CC(F)(F)F [1,1,1,3,3-pentafluoropropane]
Details | thermal conductivity
283.24 K, 29153 kPa | 0.1046 ± 0.0013 W/m/K
283.25 K, 29157 kPa | 0.1041 ± 0.0013 W/m/K
283.29 K, 22330 kPa | 0.1022 ± 0.0013 W/m/K
283.3 K, 22338 kPa | 0.102 ± 0.0013 W/m/K
283.31 K, 16102 kPa | 0.09978 ± 0.0013 W/m/K
283.34 K, 10490 kPa | 0.09781 ± 0.0013 W/m/K
283.35 K, 10482 kPa | 0.09779 ± 0.0013 W/m/K
283.39 K, 5078 kPa | 0.09561 ± 0.0012 W/m/K
283.39 K, 5084 kPa | 0.09578 ± 0.0012 W/m/K
283.4 K, 124 kPa | 0.09369 ± 0.0012 W/m/K
297.28 K, 238 kPa | 0.08846 ± 0.0011 W/m/K and 0.0884 ± 0.0011 W/m/K
297.3 K, 6681 kPa | 0.09147 ± 0.0012 W/m/K
297.31 K, 6682 kPa | 0.09132 ± 0.0012 W/m/K
297.33 K, 12567 kPa | 0.09379 ± 0.0012 W/m/K
297.33 K, 12571 kPa | 0.09396 ± 0.0012 W/m/K
297.36 K, 12582 kPa | 0.09405 ± 0.0012 W/m/K
297.37 K, 12586 kPa | 0.09376 ± 0.0012 W/m/K
297.49 K, 19332 kPa | 0.09652 ± 0.0012 W/m/K
297.49 K, 19337 kPa | 0.09665 ± 0.0012 W/m/K
297.69 K, 229 kPa | 0.08847 ± 0.0011 W/m/K
297.69 K, 239 kPa | 0.0881 ± 0.0011 W/m/K
297.7 K, 6677 kPa | 0.0909 ± 0.0012 W/m/K and 0.09107 ± 0.0012 W/m/K
297.72 K, 12571 kPa | 0.09392 ± 0.0012 W/m/K
297.73 K, 12572 kPa | 0.0939 ± 0.0012 W/m/K
297.75 K, 12582 kPa | 0.09397 ± 0.0012 W/m/K
297.75 K, 12583 kPa | 0.09395 ± 0.0012 W/m/K
297.86 K, 19322 kPa | 0.09664 ± 0.0012 W/m/K
297.86 K, 19340 kPa | 0.09658 ± 0.0012 W/m/K
298.13 K, 233 kPa | 0.08778 ± 0.0011 W/m/K
298.14 K, 234 kPa | 0.08789 ± 0.0011 W/m/K
298.14 K, 6680 kPa | 0.09232 ± 0.0012 W/m/K and 0.09104 ± 0.0012 W/m/K
298.14 K, 12568 kPa | 0.09369 ± 0.0012 W/m/K
298.14 K, 12571 kPa | 0.09358 ± 0.0012 W/m/K
298.17 K, 12583 kPa | 0.09365 ± 0.0012 W/m/K
298.18 K, 12574 kPa | 0.09352 ± 0.0012 W/m/K
298.26 K, 19324 kPa | 0.09657 ± 0.0012 W/m/K
298.27 K, 19334 kPa | 0.09654 ± 0.0012 W/m/K
298.58 K, 12568 kPa | 0.09385 ± 0.0012 W/m/K
298.59 K, 12563 kPa | 0.09379 ± 0.0012 W/m/K
298.6 K, 6668 kPa | 0.09111 ± 0.0012 W/m/K
298.6 K, 6673 kPa | 0.0911 ± 0.0012 W/m/K
298.61 K, 230 kPa | 0.08804 ± 0.0011 W/m/K
298.61 K, 234 kPa | 0.08787 ± 0.0011 W/m/K
298.62 K, 12577 kPa | 0.09374 ± 0.0012 W/m/K
298.62 K, 12578 kPa | 0.09384 ± 0.0012 W/m/K
298.7 K, 19323 kPa | 0.09665 ± 0.0012 W/m/K
298.71 K, 19329 kPa | 0.09658 ± 0.0012 W/m/K
298.72 K, 26079 kPa | 0.09945 ± 0.0013 W/m/K
298.72 K, 26080 kPa | 0.09952 ± 0.0013 W/m/K
298.73 K, 33915 kPa | 0.1022 ± 0.0013 W/m/K
298.73 K, 33916 kPa | 0.1019 ± 0.0013 W/m/K
298.74 K, 41639 kPa | 0.1043 ± 0.0013 W/m/K
298.75 K, 41635 kPa | 0.1043 ± 0.0013 W/m/K
299.08 K, 12562 kPa | 0.09373 ± 0.0012 W/m/K
299.09 K, 12561 kPa | 0.09382 ± 0.0012 W/m/K
299.09 K, 26077 kPa | 0.09835 ± 0.0013 W/m/K
299.09 K, 26079 kPa | 0.09892 ± 0.0013 W/m/K
299.09 K, 33913 kPa | 0.1011 ± 0.0013 W/m/K
299.09 K, 33914 kPa | 0.1013 ± 0.0013 W/m/K
299.09 K, 41634 kPa | 0.1044 ± 0.0013 W/m/K
299.09 K, 41635 kPa | 0.1044 ± 0.0013 W/m/K
299.1 K, 6675 kPa | 0.09125 ± 0.0012 W/m/K
299.11 K, 6673 kPa | 0.0912 ± 0.0012 W/m/K
299.11 K, 12580 kPa | 0.0938 ± 0.0012 W/m/K
299.12 K, 12583 kPa | 0.09382 ± 0.0012 W/m/K
299.14 K, 227 kPa | 0.08804 ± 0.0011 W/m/K
299.14 K, 238 kPa | 0.08799 ± 0.0011 W/m/K
299.19 K, 19316 kPa | 0.09651 ± 0.0012 W/m/K
299.19 K, 19328 kPa | 0.09648 ± 0.0012 W/m/K
299.48 K, 41634 kPa | 0.1043 ± 0.0013 W/m/K
299.49 K, 33910 kPa | 0.1012 ± 0.0013 W/m/K
299.49 K, 33912 kPa | 0.1011 ± 0.0013 W/m/K
299.49 K, 41635 kPa | 0.1042 ± 0.0013 W/m/K
299.5 K, 26073 kPa | 0.09896 ± 0.0013 W/m/K
299.5 K, 26076 kPa | 0.099 ± 0.0013 W/m/K
299.89 K, 41632 kPa | 0.1042 ± 0.0013 W/m/K
299.9 K, 41629 kPa | 0.1042 ± 0.0013 W/m/K
299.91 K, 33908 kPa | 0.1013 ± 0.0013 W/m/K
299.92 K, 33910 kPa | 0.1013 ± 0.0013 W/m/K
299.93 K, 26071 kPa | 0.09862 ± 0.0013 W/m/K
299.93 K, 26073 kPa | 0.09884 ± 0.0013 W/m/K
300.35 K, 41624 kPa | 0.1042 ± 0.0013 W/m/K
300.35 K, 41629 kPa | 0.1044 ± 0.0013 W/m/K
300.37 K, 33905 kPa | 0.1015 ± 0.0013 W/m/K
300.38 K, 33907 kPa | 0.1015 ± 0.0013 W/m/K
300.4 K, 26067 kPa | 0.09874 ± 0.0013 W/m/K
300.41 K, 26067 kPa | 0.09891 ± 0.0013 W/m/K
301.58 K, 62451 kPa | 0.1103 ± 0.0014 W/m/K
301.58 K, 62455 kPa | 0.11 ± 0.0014 W/m/K
301.59 K, 68041 kPa | 0.1115 ± 0.0014 W/m/K
301.59 K, 68044 kPa | 0.1115 ± 0.0014 W/m/K
301.6 K, 9757 kPa | 0.09158 ± 0.0012 W/m/K
301.61 K, 9755 kPa | 0.09136 ± 0.0012 W/m/K
301.62 K, 52493 kPa | 0.1071 ± 0.0014 W/m/K
301.63 K, 4924 kPa | 0.08962 ± 0.0011 W/m/K
301.63 K, 52493 kPa | 0.1066 ± 0.0014 W/m/K
301.64 K, 4920 kPa | 0.089 ± 0.0011 W/m/K
301.65 K, 27815 kPa | 0.0982 ± 0.0013 W/m/K
301.65 K, 43573 kPa | 0.1041 ± 0.0013 W/m/K
301.65 K, 43574 kPa | 0.104 ± 0.0013 W/m/K
301.66 K, 27823 kPa | 0.09824 ± 0.0013 W/m/K
301.66 K, 35535 kPa | 0.1015 ± 0.0013 W/m/K
301.66 K, 35538 kPa | 0.1014 ± 0.0013 W/m/K
301.67 K, 289 kPa | 0.08665 ± 0.0011 W/m/K
301.67 K, 293 kPa | 0.08649 ± 0.0011 W/m/K
301.69 K, 21591 kPa | 0.09669 ± 0.0012 W/m/K
301.69 K, 21597 kPa | 0.09656 ± 0.0012 W/m/K
301.75 K, 15353 kPa | 0.09399 ± 0.0012 W/m/K
301.75 K, 15355 kPa | 0.0941 ± 0.0012 W/m/K
301.92 K, 62442 kPa | 0.11 ± 0.0014 W/m/K
301.92 K, 62448 kPa | 0.1098 ± 0.0014 W/m/K
301.93 K, 68033 kPa | 0.1115 ± 0.0014 W/m/K
301.93 K, 68038 kPa | 0.1117 ± 0.0014 W/m/K
301.97 K, 52486 kPa | 0.1073 ± 0.0014 W/m/K
301.97 K, 52491 kPa | 0.107 ± 0.0014 W/m/K
301.98 K, 9757 kPa | 0.09137 ± 0.0012 W/m/K
301.99 K, 9759 kPa | 0.09137 ± 0.0012 W/m/K
302 K, 43569 kPa | 0.104 ± 0.0013 W/m/K
302.01 K, 43570 kPa | 0.1038 ± 0.0013 W/m/K
302.02 K, 35523 kPa | 0.1016 ± 0.0013 W/m/K
302.02 K, 35525 kPa | 0.1012 ± 0.0013 W/m/K
302.03 K, 4920 kPa | 0.08894 ± 0.0011 W/m/K
302.03 K, 4923 kPa | 0.08935 ± 0.0011 W/m/K
302.03 K, 27815 kPa | 0.09838 ± 0.0013 W/m/K
302.03 K, 27819 kPa | 0.09867 ± 0.0013 W/m/K
302.07 K, 299 kPa | 0.08696 ± 0.0011 W/m/K
302.07 K, 21586 kPa | 0.09614 ± 0.0012 W/m/K
302.07 K, 21589 kPa | 0.09606 ± 0.0012 W/m/K
302.08 K, 296 kPa | 0.0866 ± 0.0011 W/m/K
302.14 K, 15358 kPa | 0.09347 ± 0.0012 W/m/K
302.14 K, 15361 kPa | 0.09381 ± 0.0012 W/m/K
302.29 K, 62439 kPa | 0.1101 ± 0.0014 W/m/K
302.29 K, 68021 kPa | 0.1115 ± 0.0014 W/m/K
302.3 K, 62445 kPa | 0.11 ± 0.0014 W/m/K
302.3 K, 68022 kPa | 0.1116 ± 0.0014 W/m/K
302.36 K, 52487 kPa | 0.1067 ± 0.0014 W/m/K
302.36 K, 52489 kPa | 0.107 ± 0.0014 W/m/K
302.39 K, 43573 kPa | 0.104 ± 0.0013 W/m/K
